Results from US11123398B2, “Chemotherapeutic combinations of cationic antimicrobial peptides and chemotherapeutics” (LYTIX BIOPHARMA AS, priority 2014, dated 2021).
Like-named read-outs stand apart in the source and are kept apart here. Non-standard residues stand in square brackets, D forms with d. Residues, ends and D or L forms follow the SMILES beside them. Dip = N[C@H](C(=O)O)C(c1ccccc1)c1ccccc1

Tests used:
[1] = tested on: panel of 10 lymphoma cell lines; format: cell-based, human
Method: Tumor cells were plated in 96-well flat-bottom microtitration plates (Nunc, Dutscher, Brumath, France) and incubated at 37° C. for 24 hours before treatment in 190 μl of drug-free and FBS-free culture medium.
[…] compounds in ¼ dilution step with a top dose of 400 μM (range 4×10^−4 to […]), with 1% (final concentration) Triton X-100 as positive control and FBS-free culture medium as negative control. The cells (190 μl) were incubated in a 200 μl final volume of FBS-free culture medium containing test substances at 37° C. under 5% CO2.
Three independent experiments were performed, each concentration being issued from quadruplicate. Control cells were treated with vehicle alone. At the end of treatments, the cytotoxic activity was evaluated by a MTS assay (see § 3.3 below).
Like MTT, MTS is bioreduced by cells into a formazan product that is directly soluble in culture medium without processing, unlike MTT.
At the end of the cells treatment, 40 μl of a 0.22 μm filtered freshly combined solution of MTS (20 ml at 2 mg/ml, Ref G1111, Batch 235897, Exp March 2009, Promega, Charbonnières, France) and PMS (1 ml at 0.92 mg/ml, Ref P9625, Batch 065K0961, Sigma) in Dulbecco's Phosphate Buffered Saline (DPBS, Ref 17-513Q, Batch 6MB0152, Cambrex), were added in each well. Culture plates were incubated for 2 h at 37° C. Absorbency (OD) were measured at 490 nm in each well using VICTOR^3™ 1420 multilabeled counter (Wallac, PerkinElmer, Courtaboeuf, France).
4.1. IC50 Data was Determined as in Example 1

[2] = tested on: murine A20 B cell lymphoma cells; experiment: Re-challenge with A20 B-cell lymphoma in mice with complete regression; format: in vivo, Balb-c mice
Method: Methods: Female Balb-c mice (n=4), previously treated with LTX-315, 1 mg) or (n=9); previously treated with LTX-315 0.5 or 1 mg) were re-inoculated (s.c. in the abdominal area) with either murine A20 B cell lymphoma cells or CT26WT colon carcinoma cells (5 million) respectively 6 weeks following initial treatment with LTX-315. Tumour growth was monitored for up to 36 days following re-inoculation.

[3] = tested on: murine A20 B-cell lymphoma; experiment: Adoptive spleen cell transfer, A20 lymphoma model; format: in vivo, Balb/c mice; details: donors: 1 mg intratumoural once daily for 3 days
Method: […] Balb/c mice (n=32) were each inoculated with A20 cells (5 million in 50 μL s.c.) on the abdominal surface. Once tumours had reached 20 mm^2 they were injected with LTX-315 (1 mg) injected intratumourally, once daily for 3 days, in a volume of 50 μL. Tumour size (mm^2) and body weight were subsequently monitored and a further injection of LTX-315 was given if any tumour re-growth was observed. Subsequently, mice showing complete tumour regression were sacrificed and used as donors for transfer of splenocytes while naive donor mice were used as controls. Spleens from donor mice were excised and cells isolated. Naive receiver mice were irradiated and divided into 2 groups. Group 1 received isolated splenocytes from cured mice, whereas group 2 received isolated splenocytes from naive mice. Freshly prepared cells were injected (20×106 per 100 μl) via the tail vein. Twenty four hours later receiver mice were inoculated with 5 million murine A20 B-cell lymphoma cells on the abdominal surface as described above. Tumour size and body weight were monitored until the maximum tumour burden of ˜125 mm^2 was reached, or a serious adverse events occurred (i.e. wound formation due to tumour tissue necrosis) at which point mice were sacrificed.

A375 cells [4] = experiment: MTT viability assay, A375 melanoma; format: cell-based, human; details: read-out: IC-50, melanoma cells, MTT
Method: The cytotoxic effect of LTX-315 was investigated using the colorimetric MTT viability assay as described in Eliassen et al. (2002), 22(5): pp 2703-10. The A375 cells were seeded at a concentration of 1×10^5 cells/ml in a volume of 0.1 ml in 96-well plates, and allowed to adhere in a complete growth media overnight. The media was then removed and the cells were washed twice in serum-free, RPMI-1650 media, before adding LTX-315 dissolved in serum-free RPMI at concentrations ranging from 2.5-300 μg/ml, and incubated for 5-180 minutes. Cells treated with a serum-free RPMI were used as negative control cells, while cells treated with 1% Triton X-100 in serum-free media were used as a positive control. The final results were calculated using the mean of three experiments, each with triplicate wells.

A375 cells [5] = experiment: Confocal microscopy with fluorescence-labeled peptide (internalization); format: cell-based, human; details: 3 μM and 1.5 μM, 30-60 min
Method: Subconfluential A375 cells were seeded at 8,000 cells/well as above, and transfected on the second day using the Lipofectamine LTX with Plus transfection reagents (Invitrogen) following the manufacturer's protocol. The mitochondria were labeled using the pDsRed2-Mito, and the nucleus was labeled using the GFP-Histon2B plasmid (Imaging Platform, University of Tromsø). A day after transfection, cells were washed twice with serum-free RPMI, and treated at different concentration and incubation periods with LTX-315 Pacific Blue or LTX-328 Pacific Blue. […] Control cells were treated with unlabeled LTX-315 and also with serum-free RPMI only. After incubation, cells were fixed with 4% paraformaldehyde in PBS, and the wells were covered with Prolong Gold antifade (Invitrogen). Cells were further analyzed by use of a Leica TCS SP5 confocal microscope, with a […] objective. Pacific Blue, GFP and Ds Red were excited using UV, with 488 and 561 lasers, and fluorescence channels were sequentially detected using the following band passes: UV: 420-480 nm (with attenuation), 488: 501-550 nm and 561: 576-676 nm.

## NCCCC[C@H](NC(=O)[C@@H](NC(=O)[C@H](Cc1c[nH]c2ccccc12)NC(=O)[C@H](CCCCN)NC(=O)[C@H](CCCCN)NC(=O)[C@H](Cc1c[nH]c2ccccc12)NC(=O)[C@H](Cc1c[nH]c2ccccc12)NC(=O)[C@H](CCCCN)NC(=O)[C@@H](N)CCCCN)C(c1ccccc1)c1ccccc1)C(N)=O [LTX-315, K-K-W-W-K-K-W-Dip-K-NH2] (H-KKWWKKW[Dip]K-NH2)
[1]
  Potency rank among the five compounds tested, lymphoma panel: most potent compound from the five compounds tested
[1]; conclusion
  IC50 range against 10 human lymphoma cell lines: micromolar range
[2]; all 4 mice previously treated with LTX-315 1 mg, re-inoculated 6 weeks after treatment, P<0.006
  Tumour growth after re-inoculation versus control animals: Significant inhibition
[2]; of 4 mice previously treated with 1 mg
  Mice with complete tumour regression after re-inoculation: 3
[2]; of 4 mice, 3 weeks later
  Animals with relapse after re-inoculation: 1
[3]
  Tumour growth in irradiated recipients of splenocytes from LTX-315-cured donors versus naive donors: Inhibition of tumour growth was observed
A375 cells [4]; 90 minutes of incubation
  IC50: 14 µM
A375 cells [4]; five minutes of incubation
  IC50: 30 µM
A375 cells [5]
  Internalization of Pacific Blue-labeled peptide: rapidly penetrated the plasma membrane
